Assay results published in patent publication EP2033655B1 (priority 2007, dated 2009).
Side chains are listed from the residue outwards. Peptide text beside a SMILES is read from it. * marks the point of attachment. X1 = NCCCC[C@H](N)CN1CCC[C@H]1C(=O)*

Biological target: T1, cell-surface expressed nucleolin (Homo sapiens, UniProt P19338)
T1 construct: endogenous in cells; host or cells: HeLa P4 cells
Assay: cell-based

T1 sequence (P19338 whole entry): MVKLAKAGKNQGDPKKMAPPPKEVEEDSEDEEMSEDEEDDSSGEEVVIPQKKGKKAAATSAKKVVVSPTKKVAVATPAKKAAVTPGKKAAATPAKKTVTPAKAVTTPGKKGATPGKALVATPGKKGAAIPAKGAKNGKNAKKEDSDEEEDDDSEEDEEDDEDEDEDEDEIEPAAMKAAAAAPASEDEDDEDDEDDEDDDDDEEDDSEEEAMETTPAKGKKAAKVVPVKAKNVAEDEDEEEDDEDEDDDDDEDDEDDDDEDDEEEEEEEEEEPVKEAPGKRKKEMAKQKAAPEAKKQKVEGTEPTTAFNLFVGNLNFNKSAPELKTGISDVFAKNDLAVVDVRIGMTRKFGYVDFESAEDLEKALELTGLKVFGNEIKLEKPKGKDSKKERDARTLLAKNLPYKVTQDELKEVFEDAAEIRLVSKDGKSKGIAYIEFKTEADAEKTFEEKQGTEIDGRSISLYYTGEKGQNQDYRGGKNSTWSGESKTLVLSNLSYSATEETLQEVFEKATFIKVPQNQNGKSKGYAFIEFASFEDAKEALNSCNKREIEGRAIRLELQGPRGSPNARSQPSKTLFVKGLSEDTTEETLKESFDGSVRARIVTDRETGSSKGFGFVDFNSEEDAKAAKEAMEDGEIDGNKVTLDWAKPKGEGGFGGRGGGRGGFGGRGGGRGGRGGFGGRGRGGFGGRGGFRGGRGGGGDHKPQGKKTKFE

CC(=O)N[C@@H](CCCCNC(=O)[C@H](CCCNC(=N)N)NC(=O)[C@@H]1CCCN1C[C@@H](N)CCCCN)C(=O)N[C@@H](C)C(=O)N[C@@H](CCCCNC(=O)[C@H](CCCNC(=N)N)NC(=O)[C@@H]1CCCN1C[C@@H](N)CCCCN)C(=O)N1CCC[C@H]1C(=O)NCC(=O)N[C@@H](CCCCNC(=O)[C@H](CCCNC(=N)N)NC(=O)[C@@H]1CCCN1C[C@@H](N)CCCCN)C(=O)N[C@@H](C)C(=O)N[C@@H](CCCCNC(=O)[C@H](CCCNC(=N)N)NC(=O)[C@@H]1CCCN1C[C@@H](N)CCCCN)C(=O)N1CCC[C@H]1C(=O)NCC(=O)N[C@@H](CCCCNC(=O)[C@H](CCCNC(=N)N)NC(=O)[C@@H]1CCCN1C[C@@H](N)CCCCN)C(=O)N[C@@H](C)C(=O)N[C@@H](CCCCNC(=O)[C@H](CCCNC(=N)N)NC(=O)[C@@H]1CCCN1C[C@@H](N)CCCCN)C(=O)N1CCC[C@H]1C(=O)NCC(N)=O [Nucant 7] (Ac-K([Arg-X1])AK([Arg-X1])PGK([Arg-X1])AK([Arg-X1])PGK([Arg-X1])AK([Arg-X1])PG-NH2)
IC50: < 0.1 µM | inhibition at 0.8 µM (HeLaP4, read-out: inhibitory activity): > 95%
